Columns and labels:
rotifers (Philodina) [1] = assay: Synergistic effects on longevity of rotifers with ascorbate and trolox; format: in vivo; design: Maximum Life Span: unit not given here
Description: Ascorbate and trolox were administered at a concentration of 100 micromolar, the indoles were given at a concentration of 5 micromolar.

[2] = Time dependent indole levels in brain tissue after i.p. administration; format: in vivo, Sprague-Dawley rats; conditions: mean+SD, N=4
Description: Time dependent changes in indole levels in brain tissue (pg/mg protein) after administration of 0.5 mg/kg i.p. of drug in phosphate buffered saline to one month old male Sprague-Dawley rats (N=4 animals, mean+SD). Endogenous levels of melatonin in saline treated control animals were 25+10 pg/mg protein, endogenous levels of indolepropionate were 80+20 pg/mg protein. Significant amounts of endogenous IPAM in rat brain could not be detected. Brain tissue was homogenized 1:10 in phosphate buffer and extracted 1:1 with ethylacetate. Recovery for melatonin, indolepropionate and IPAM were 57+6, 69+12 and 80+4%. Indoles were measured by HPLC with electrochemical detection (20% methanol eluent, 990 mV oxidation potential, IPAM elutes at 18 minutes, melatonin at 21 minutes, indolepropionate at 36 minutes).

[3] = tested on: Hydroxyl Radical Mediated Oxidative Damage to DNA; assay: Inhibition of hydroxyl radical mediated oxidative damage to DNA in rat forebrain homogenate (8-hydroxydeoxyguanosine formation); format: biochemical; conditions: 60 min with 3 mM hydrogen peroxide, 4 mM ferrous sulfate, 2 mM ADP; mean+SD, N=6; read-out: IC 50 (concentration to reduce oxidative DNA damage by 50%)
Description: Rat forebrain homogenate was incubated for sixty minutes with 3 mM hydrogen peroxide, 4 mM ferrous sulfate and 2 mM ADP to generate hydroxyl radicals. The concentrations of each indole compound to reduce oxidative DNA damage by 50%, the IC 50 values, are given as means+standard deviations for N=6 different determinations. The IC 50 values were calculated by running six experiments each at 10 increasing concentrations ranging from 0.01 to 100 micromolar of melatonin, indole-3-propionic acid and indole-3-propionamide. DNA damage was examined by measuring the formation of 8-hydroxydeoxyguanosine with HPLC and electrochemical detection in the presence and absence of the hydroxyl radical scavengers.

rotifers (Philodina) [4] = assay: Inhibition of the aging process in a rotifer model (life span); format: in vivo
Text: Free-radicals are involved in the aging process and since IPAM is a powerful cytoprotective agent, we tested IPAM for its property to inhibit the aging process. […] (*=p<0.05, statistically significant difference to control).

Aβ1-40 = molecular target: T1, Aβ1-40 (Homo sapiens, UniProt P05067); assay: Thioflavin T fluorescence, inhibition of Aβ aggregation; format: biochemical; conditions: Aβ 250 μM, compound:Aβ molar ratio 1:1; FIG. 1
T1 construct: thioflavin T fluorescence experiments performed with Aβ1-40
Description: FIG. 1 illustrates the results of thioflavin T fluorescence experiments performed with Aβ1-40 showing the effects of IPAM as compared with melatonin and IPA.
The ThT was performed as previously described. Briefly, 5 μl were obtained from each sample after incubation and added to 2 ml of a glycine-NaOH buffer (50 mM), pH 9.2, containing 2 μM thioflavin T. Fluorescence intensities were measured at excitation 435 nm and emission 485 nm in a Hitachi F-2000 fluorescence spectrophotometer. A time scan of fluorescence intensity was performed and three measurements were obtained after the decay reached a plateau at 200, 220, and 240 seconds. These measurements were averaged after subtracting the background fluorescence of 2.0 μM thioflavin T in the blank buffers. […] All measurements were done in triplicate. Aqueous stock solutions of 1 mM of each compound were made by first preparing a 10 mM suspension in 1 N HCl and then by completely dissolving them in 100 mM phosphate buffered saline at pH 7.4 (1:10, v:v) and re-adjusting the pH to 7.4 with 1 N NaOH. Solutions of Aβ were prepared by dissolving 2.2 mg of the peptide in 1 ml of 50 mM bicarbonate buffer at pH 9.6. 50 μl aliquots of this solution were lyophilized and stored at −80° C. until needed. Working stock solutions of the peptide (500 μM concentration) were prepared in HPLC-grade water immediately prior to the experiments. In the experimental samples, Aβ was further diluted 1:1 with phosphate buffered saline (pH 7.4, 100 mM) to which each of the compounds or equivalent volumes of buffer solution were added. The final concentration of Aβ in each sample was 250 μM and the compound:Aβ molar ratios were 1:1.

[5] = in vivo; cited from earlier work
[6] = series against Control (0.1% DMSO), ascorbate, trolox 100 micromolar
[7] = 30 minutes after 0.5 mg/kg i.p. in phosphate buffered saline
[8] = 60 minutes after 0.5 mg/kg i.p. in phosphate buffered saline
[9] = 120 minutes after 0.5 mg/kg i.p. in phosphate buffered saline

T1 sequence (P05067 672-711): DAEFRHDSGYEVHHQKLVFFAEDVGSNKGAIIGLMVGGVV

O=C1O[C@H]([C@@H](O)CO)C(O)=C1O [Ascorbate]
Increase in % of control (Medium Life Span) (rotifers (Philodina) [1]; control = 0.1% DMSO): −1% | Increase in % of control (maximum life span) (rotifers (Philodina) [1]; control = 0.1% DMSO): −7% | Maximum Life Span (rotifers (Philodina) [1]; series against Ascorbate in 0.1% DMSO, ascorbate 100 micromolar, indoles 5 micromolar): 30 | Maximum Life Span (rotifers (Philodina) [1]; [6]): 28

O=C(O)CCc1c[nH]c2ccccc12 [IPA, indole-3-propionic acid]
indole levels in brain tissue [2, 7]: 160 + 11 pg/mg protein | indole levels in brain tissue [2, 8]: 210 + 18 pg/mg protein | indole levels in brain tissue [2, 9]: 230 + 25 pg/mg protein | IC50 [3]: 7460 nM | Increase in % of control (maximum life span) (rotifers (Philodina) [4]; 0.5 μM): +37% | Increase in % of control (median life span) (rotifers (Philodina) [4]; 0.5 μM): +28% | Maximum life span in days (90% survival) (rotifers (Philodina) [4]; 0.5 μM, control 27): 39 days | Increase in % of control (maximum life span) (rotifers (Philodina) [4]; 5 μM): +37% | Increase in % of control (median life span) (rotifers (Philodina) [4]; 5 μM): +30% | Maximum life span in days (90% survival) (rotifers (Philodina) [4]; 5 μM, control 30): 41 days | Increase in % of control (median life span) (rotifers (Philodina) [4]; 50 μM): −3% | Maximum life span in days (90% survival) (rotifers (Philodina) [4]; 50 μM, control 30): 30 days | inhibition of Aβ aggregation (Aβ1-40): potent inhibitor of Aβ aggregation | half-life [5]: 4.5 h

NC(=O)CCc1c[nH]c2ccccc12 [IPAM, indole-3-propionamide]
indole levels in brain tissue [2, 7]: 480 + 46 pg/mg protein | indole levels in brain tissue [2, 8]: 520 + 50 pg/mg protein | indole levels in brain tissue [2, 9]: 570 + 69 pg/mg protein | IC50 [3]: 180 nM | Increase in % of control (maximum life span) (rotifers (Philodina) [4]; 0.5 μM): +55% | Increase in % of control (median life span) (rotifers (Philodina) [4]; 0.5 μM): +31% | Maximum life span in days (90% survival) (rotifers (Philodina) [4]; 0.5 μM, control 27): 42 days | Increase in % of control (maximum life span) (rotifers (Philodina) [4]; 5 μM): +50% | Increase in % of control (median life span) (rotifers (Philodina) [4]; 5 μM): +40% | Maximum life span in days (90% survival) (rotifers (Philodina) [4]; 5 μM, control 30): 45 days | Increase in % of control (maximum life span) (rotifers (Philodina) [4]; 50 μM): +13% | Increase in % of control (median life span) (rotifers (Philodina) [4]; 50 μM): +15% | Maximum life span in days (90% survival) (rotifers (Philodina) [4]; 50 μM, control 30): 34 days | toxicity in rotifers (rotifers (Philodina) [4]; in vivo): devoid of toxicity | inhibition of Aβ aggregation (Aβ1-40): potent inhibitor of Aβ aggregation

COc1ccc2[nH]cc(CCNC(C)=O)c2c1 [Melatonin]
indole levels in brain tissue [2, 7]: 450 + 30 pg/mg protein | indole levels in brain tissue [2, 8]: 200 + 15 pg/mg protein | indole levels in brain tissue [2, 9]: 73 + 6 pg/mg protein | IC50 [3]: 1400 nM | Increase in % of control (maximum life span) (rotifers (Philodina) [4]; 0.5 μM): +30% | Increase in % of control (median life span) (rotifers (Philodina) [4]; 0.5 μM): +19% | Maximum life span in days (90% survival) (rotifers (Philodina) [4]; 0.5 μM, control 27): 35 days | Increase in % of control (maximum life span) (rotifers (Philodina) [4]; 5 μM): +40% | Increase in % of control (median life span) (rotifers (Philodina) [4]; 5 μM): +29% | Maximum life span in days (90% survival) (rotifers (Philodina) [4]; 5 μM, control 30): 42 days | Increase in % of control (maximum life span) (rotifers (Philodina) [4]; 50 μM): +3% | Increase in % of control (median life span) (rotifers (Philodina) [4]; 50 μM): +12% | Maximum life span in days (90% survival) (rotifers (Philodina) [4]; 50 μM, control 30): 31 days | inhibition of Aβ aggregation (Aβ1-40): potent inhibitor of Aβ aggregation | half-life [5]: 0.333 h

Cc1c(C)c2c(c(C)c1O)CCC(C)(C(=O)O)O2 (stereo not drawn) [Trolox]
Increase in % of control (Medium Life Span) (rotifers (Philodina) [1]; control = 0.1% DMSO): +8% | Maximum Life Span (rotifers (Philodina) [1]; [6]): 30 | Maximum Life Span (rotifers (Philodina) [1]; series against Trolox in 0.1% DMSO, trolox 100 micromolar, indoles 5 micromolar): 34
